# Experimental data from patent US4673684A, “Amide derivatives and 5-lipoxygenase inhibitors containing the same as an active ingredient” (Terumo Corporation, priority 1984, dated 1987).
# Molecular target: T1, 5-lipoxygenase (Mus musculus, UniProt P48999)
# T1 construct: The supernatant is used as a 5-lipogenase enzyme solution; endogenous in cells
# T1 sequence (P48999 1-674): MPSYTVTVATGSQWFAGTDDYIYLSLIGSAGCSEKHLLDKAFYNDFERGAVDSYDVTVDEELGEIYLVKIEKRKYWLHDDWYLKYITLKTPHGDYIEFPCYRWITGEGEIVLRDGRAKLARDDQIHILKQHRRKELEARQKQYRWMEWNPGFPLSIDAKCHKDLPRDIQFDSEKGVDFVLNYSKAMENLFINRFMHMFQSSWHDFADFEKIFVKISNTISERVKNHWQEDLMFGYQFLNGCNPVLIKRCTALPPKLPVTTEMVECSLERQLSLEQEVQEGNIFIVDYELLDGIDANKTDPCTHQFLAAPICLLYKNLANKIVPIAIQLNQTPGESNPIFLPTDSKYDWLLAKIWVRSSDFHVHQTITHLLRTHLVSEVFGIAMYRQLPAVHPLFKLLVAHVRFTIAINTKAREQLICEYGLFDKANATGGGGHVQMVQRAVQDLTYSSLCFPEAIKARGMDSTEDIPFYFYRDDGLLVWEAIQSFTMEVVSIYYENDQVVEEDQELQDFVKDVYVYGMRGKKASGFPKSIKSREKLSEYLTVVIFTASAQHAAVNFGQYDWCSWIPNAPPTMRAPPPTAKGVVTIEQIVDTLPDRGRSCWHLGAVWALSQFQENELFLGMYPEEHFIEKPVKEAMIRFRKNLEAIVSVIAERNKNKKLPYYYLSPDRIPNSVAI
# Test: 5-Lipoxygenase-inhibiting Activity (decrease in 5-HETE and LTB4 formed from radiolabelled arachidonic acid, enzyme solution from mouse mastcytoma cells P-815)
# Assay type: biochemical
# Settings: 5-HETE and LTB4 formation; mouse mastcytoma P-815 enzyme solution; 37° C., 5 min; pH 7.4; with indomethacin; read-out: 50% Inhibitory concentration IC50
# Protocol: Mouse mastcytoma cells P-815 are diluted in a culture solution, containing 90% Eagle Basic Medium (manufactured by Gibco Laboratories) to 5×10^4 cells/ml. The diluted solution is cultivated with shaking in air at 37° C. for 48 hours. Then, the culture solution is cooled with ice and centrifuged to collect the cells. The cells are suspended in a phosphate buffer solution at pH 7.4 at a concentration of 2×10^7 cells/ml. The suspension is treated in a ultrasonic cell disintegrater and then centrifuged at 10,000 r.p.m. for 10 min. The supernatant is used as a 5-lipogenase enzyme solution. In test tubes are placed 20 μl of radiolabelled arachidonic acid ([…]), indomethacin (2×10^-8 mol) and an amide derivative to be tested, respectively. To each of the test tubes are added 0.45 ml of a phosphate buffer solution, 0.45 ml of the above-prepared suspension, 0.45 ml of the above-prepared enzyme solution and 0.1 ml of 8 mM CaCl2 (calcium chloride). The mixture is reacted at 37° C. for 5 min. After cooled with ice, 60 μl of 1N-HCl (hydrochloric acid is added to the reaction mixture, which is then extracted with 8 ml of ethyl acetate. The extract is concentrated, and the concentrate is developed by spotting on a silica gel thin layer plate (Merck 60F 254). Measurement of the inhibitory activity is made by collecting fractions corresponding to lipoxygenase products 5-HETE (5(s)-hydroxy-6,8,11,14-eicosatetraenic acid) and LTB4 (leucotriene B4) and determining the radioactivity by a liquid scintillation counter. The lipoxygenase inhibiting activity is determined by decrease in the amount of the above-mentioned 5-lipoxygenaseproducts. […] 50% inhibitory concentration or 30% inhibitory concentration as indicated in the table means the concentration of an amide derivative required for reducing the amount of the above-mentioned 5-lipoxygenase products (5-HETE and LTB4) to 50% or 30% of the amount when the amount of 5-HETE and LTB4 produced in the absenced of the amide derivative is 100%.
row,SMILES,IC50
1,COc1cc(/C=C/C=C/C(=O)N2CCN(CCCCn3cnc4c3c(=O)n(C)c(=O)n4C)CC2)ccc1O [Example 130],1000 nM
2,COc1cc(/C=C/C(=O)NCCN2CCN(C(c3ccccc3)c3ccc(Cl)cc3)CC2)cc(OC)c1O (centres unmarked) [Example 49],40 nM
3,"CC(OCCN1CCN(C(=O)/C=C/C=C/c2ccc(O)c(O)c2)CC1)(c1ccccc1)c1ccc(Cl)cc1 (centres unmarked) [Example 107, N-[5-(3,4-dihydroxyphenyl)-2,4-pentadienoyl]-N-[2-[1-phenyl-1-(p-chlorophenyl)-ethoxy]ethyl]piperazine]",10 nM
4,"O=C(/C=C/C=C/c1ccc(O)c(O)c1)Nc1ccccc1C(=O)O [Example 24, N-5-(3,4-dihydroxyphenyl)-2,4-pentadienoylanthranilic acid]",100 nM
5,"COc1cc(/C=C/C=C/C(=O)N2CCN(CCOC(C)(c3ccccc3)c3ccc(Cl)cc3)CC2)cc(OC)c1O (centres unmarked) [Example 113, N-[5-(3,5-dimethoxy-4-hydroxyphenyl]-2,4-pentadienoyl]-N'-[2-[1-phenyl-1-(p-chlorophenyl)ethoxy]ethyl]piperazine]",20 nM
6,"COc1cc(/C=C/C=C/C(=O)NCCCCNC(=O)/C=C/C=C/c2ccc(O)c(OC)c2)ccc1O [Example 14, N,N'-di{5-(3-methoxy-4-hydroxyphenyl)-2,4-pentadienoyl}-1,4-diaminobutane]",100 nM
7,COc1cc(/C=C/C(=O)N2CCN(CCOC(c3ccccc3)c3ccccc3)CC2)ccc1O [Example 70],600 nM
8,"Cn1c(=O)c2c(ncn2CCCCN2CCN(C(=O)/C=C/c3ccc(O)c(O)c3)CC2)n(C)c1=O [Example 121, 7-[4-[4-{3-(3,4-dihydroxyphenyl)-2-propenoyl}piperazi-1-nyl]butyl]theophylline]",5000 nM
9,"O=C(/C=C/c1ccc(O)c(O)c1)N1CCN(C(c2ccccc2)c2ccccc2)CC1 [Example 8, N-benzhydryl-N'-{(3,4-dihydroxyphenyl)-2-propenoyl}-piperazine]",100 nM
10,"COc1ccc(/C=C/C=C/C(=O)NCCN2CCN(C(=O)c3ccccc3N)CC2)cc1OC [Example 48, N-(o-aminobenzoyl)-N'-[{5-(3,4-dimethoxyphenyl)-2,4-pentadienoyl}aminoethyl]piperazine]",6000 nM
11,"COc1cc(/C=C/C=C/C(=O)N2CCN(CCCOC(C)(c3ccccc3)c3ccc(Cl)cc3)CC2)ccc1O (centres unmarked) [Example 111, N-[5-(3-methoxy-4-hydroxy)phenyl-2,4-pentadienoyl)-N'-[3-[1-phenyl-1-(p-chlorophenyl)ethoxy]propyl]piperazine]",10 nM
12,"COc1cc(/C=C/C(=O)N2CCN(CCn3cnc4c3c(=O)n(C)c(=O)n4C)CC2)ccc1O [Example 103, 7-[2-[4-[3(3-methoxy-4-hydroxyphenyl)-2-propenoyl]piperazin-1-yl]-ethyl]theophilline]",30000 nM
13,"COc1cc(/C=C/C(=O)NCCN2CCC(OC(c3ccccc3)c3ccccc3)CC2)cc(OC)c1O [Example 117, 1-[2-[3-(3,5-dimethoxy-4-hydroxyphenyl)-2-propenoyl]aminoethyl]-4-benzhydroxypiperidine]",20 nM
14,"O=C(/C=C/C=C/c1ccc(O)c(O)c1)NCCCCN1CCN(C(c2ccccc2)c2ccccc2)CC1 [Example 83, N-benzhydryl-N'-5-(3,4-dihydroxyphenyl)-2,4-pentadienoylaminobutylpiperazine]",40 nM
15,"COc1cc(/C=C/C=C/C(=O)NCCOC(c2ccccc2)c2ccccc2)ccc1O [Example 91, 2-[5-(3-methoxy-4-hydroxy)phenyl-2,4-pentadienoyl]aminoethyl benzhydryl ether]",60 nM
16,COc1cc(/C=C/C=C/C(=O)N2CCN(CCn3cnc4c3c(=O)n(C)c(=O)n4C)CC2)ccc1O [Example 112],2000 nM
17,"CC(OCCCN1CCN(C(=O)/C=C/C=C/c2ccc(O)c(O)c2)CC1)(c1ccccc1)c1ccc(Cl)cc1 (centres unmarked) [Example 108, N-[5-(3,4-dihydroxy)phenyl-2,4-pentadienoyl]-N'-[3-[1-phenyl-1-(p-chlorophenyl)ethoxy]propyl]piperazine]",8 nM
18,"COc1cc(/C=C/C=C/C(=O)N2CCN(C(c3ccccc3)c3ccccc3)CC2)ccc1O [Example 15, 1-benzhydryl-4-{5-(3-methoxy-4-hydroxyphenyl)-2,4-pentadienoyl}piperazene]",90 nM
19,"O=C(/C=C/c1ccc(O)c(O)c1)Nc1cc(Cl)ccc1O [Example 10, N-{3-(3,4-dihydroxyphenyl)-2-propenoyl}-5-chloro-2-hydroxyaniline]",30 nM
20,Cn1c(=O)c2c(ncn2CCN2CCN(C(=O)/C=C/C=C/c3ccc(O)c(O)c3)CC2)n(C)c1=O [Example 109],2000 nM

# More lines, in order of falling IC50, values ahead:
row,IC50,SMILES
1,10000 nM,COc1cc(/C=C/C=C/C(=O)NCCN2CCN(C)CC2)ccc1O [Example 40]
2,600 nM,"COc1cc(/C=C/C=C/C(=O)Nc2ccccc2C(=O)O)ccc1O [Example 13, N-5-(3-methoxy-4-hydroxyphenyl)-2,4-pentadienoylanthranilic acid]"
3,300 nM,COc1cc(/C=C/C(=O)NCCCN2CCN(C(c3ccccc3)c3ccccc3)CC2)ccc1O [Example 34]
4,200 nM,"COc1cc(/C=C/C(=O)NCCCCN2CCC(OC(c3ccccc3)c3ccccc3)CC2)ccc1O [Example 124, 1-[4-[3-(3-methoxy-4-hydroxyphenyl)-2-propenoyl]aminobutyl]-4-benzhydroxypiperidine]"
5,80 nM,"O=C(/C=C/C=C/c1ccc(O)c(O)c1)NCCCN1CCN(C(c2ccccc2)c2ccccc2)CC1 [Example 44, N-benzhydryl-N'-[[5-{3,4-dihydroxyphenyl)-2,4-pentadienoyl}aminopropyl]piperazine]"
6,60 nM,"CC/C=C\C/C=C\C/C=C\C/C=C\C/C=C\C/C=C\CCC(=O)NCCCCNC(=O)/C=C/c1ccc(O)c(O)c1 [Example 6, N-[3-(3,4-dihydroxyphenyl)-2-propenoyl]-N'-[4,7,10,13,16,19-docosahexaenoyl]1,4-diaminobutane]"
7,30 nM,O=C(/C=C/C=C/c1ccc(O)c(O)c1)NCCN1CCC(OC(c2ccccc2)c2ccccc2)CC1 [Example 118]
8,30 nM,"O=C(/C=C/c1ccc(O)c(O)c1)NCCCN1CCN(C(c2ccccc2)c2ccccc2)CC1 [Example 37, N-benzhydryl-N'-[{3-(3,4-dihydroxyphenyl)-2-propenoyl}-aminopropyl]piperazine]"
9,10 nM,"COc1cc(/C=C/C=C/C(=O)NCCN2CCC(OC(c3ccccc3)c3ccccc3)CC2)cc(OC)c1O [Example 120, 1-[2-[5-(3,5-dimethoxy-4-hydroxyphenyl)-2,4-pentadienoyl]aminoethyl]-4-benzhydroxypiperidine]"
10,10 nM,"COc1cc(/C=C/C=C/C(=O)NCCOC(c2ccccc2)c2ccccc2)cc(OC)c1O [Example 100, 2-[5-(3,5-dimethoxy-4-hydroxy)phenyl-2,4-pentadienoyl]aminoethyl benzhydryl ether]"
11,10 nM,"COc1cc(/C=C/C(=O)N2CCN(CCOC(C)(c3ccccc3)c3ccc(Cl)cc3)CC2)cc(OC)c1O (centres unmarked) [Example 105, N-[3-(3,5-dimethoxy-4-hydroxyphenyl)-2-propenoyl]-N'-[2-[1-phenyl-1-(p-chlorophenyl)ethoxy]ethyl]piperazine]"
12,9 nM,"COc1cc(/C=C/C=C/C(=O)NCCN2CCC(OC(c3ccccc3)c3ccccc3)CC2)ccc1O [Example 119, 1-[2-[5-(3-methoxy-4-hydroxyphenyl)-2,4-pentadienoyl]aminoethyl]4-benzhydroxypiperidine]"
